Measured values taken from paper PMC6749586, “Design, Synthesis, and Anticancer Effect Studies of Iridium(III) Polypyridyl Complexes against SGC-7901 Cells” (Molecules, 2019).

Experiments:
SGC-7901 cells [1] = experiment: Western blot analysis of apoptosis-related proteins; assay type: cell-based, human; settings: 4.0 µM 1, 15.0 µM 2, 15.0 µM 3, 24 h
Method: The SGC-7901 cancer cells were seeded on 6-well plates at a density of 5 × 10^5 cells per well. Following incubation for 24 h, the cells were treated with 1–3 for 24 h. Next, total proteins were extracted from the cells after incubation in lysis radioimmunoprecipitation assay (RIPA) buffer for 30 min on ice. After centrifugation (13,000× g, 4 °C, 20 min) of the cell suspension, the supernatants were obtained. Protein concentrations were determined using a BCA (bicinchoninic acid) protein assay kit. Equal amounts of denatured proteins were fractionated by electrophoresis on SDS-polyacrylamide gel at 50 V for 3 h. A pre-stained color protein marker was used as the internal reference. The gels were then segmented, transferred to polyvinylidene fluoride (PVDF) membranes (Millipore, Burlington, MA, USA) and then blocked with 5% non-fat milk in TBST buffer (150 mM NaCl, 20 mM Tris-HCl, 0.05% Tween 20, pH = 8.0) for 2 h. […] Further hybridization with the secondary antibodies (diluted 1:5000) conjugated with horseradish peroxidase was performed after washing the membranes three times in TBST buffer with shaking. Each protein was visualized using an enhanced chemiluminescence (ECL) detection kit, in accordance with the manufacturer’s instructions. Finally, the blot images were photographed by a computerized imaging system.

SGC-7901 cells [2] = experiment: ATP quantification assay (luciferin-luciferase); assay type: cell-based, human; settings: 4.0 µM 1, 15.0 µM 2, 15.0 µM 3, 24 h; control 951.46 nM
Method: Approximately 2.4 × 10^6 cells were taken, evenly planted in a 6-well plate, and incubated overnight in an incubator at 37 °C. On the next day, the cells were exposed to different concentrations of compounds for 24 h in triplicate. Following exposure, 200 μL of cell lysis buffer was added to each well of the cell plate and lysed on ice. To measure ATP, 20 μL of the lysed cell suspension was added to 100 μL of a luciferin–luciferase reagent. Light emission was measured by a luminometer. ATP levels were determined using a standard curve.

SGC-7901 cells [3] = experiment: Cell cycle assay (PI, flow cytometry); assay type: cell-based, human; settings: for Percentage in the cells, G0/G1 phase / Phase of cell cycle arrest / Percentage in the cells, G2/M phase / Percentage in the cells, S phase: 4.0 µM 1, 15.0 µM 2, 15.0 µM 3, 24 h; for Percentage in the cells, G2/M phase: control 14.92%; for Percentage in the cells, S phase: control 37.46%
Method: Then, each sample was washed twice with cold PBS, re-suspended in 190 μL of PBS buffer containing 4 μL of PI (1 mg/mL), 4 μL of RnaseA (10 mg/mL) and 0.2 μL of Tritonx-100, and stained in the dark for 30 min. Finally, the cells were analyzed by flow cytometry

BEL-7402 cells = experiment: MTT cytotoxicity assay, BEL-7402; assay type: cell-based, human; settings: 48 h, read-out: IC50 toward BEL-7402
Source text: (§1) The lung carcinoma cell line A549, the cervical cancer cell line HeLa, the esophageal cancer cell line Eca-109, and the human hepatocellular carcinoma cell line BEL-7402 were purchased from the cell bank of the Cell Institute of Sinica Academia Shanghai (Shanghai, China). The gastric adenocarcinoma cell line SGC-7901, the hepatocellular carcinoma cell line HepG2, and the mouse embryonic fibroblast cell line NIH 3T3 were obtained from the Experimental Animal Center of Sun Yat-Sen University (Guangzhou, China). The BEL-7402 and SGC-7901 cell lines were cultured in Roswell Park Memorial Institute Medium (RPMI-1640); and A549, Eca-109, HepG2, and NIH 3T3 cells were grown in Dulbecco’s Modified Eagle’s Medium (DMEM), including 10% fetal bovine serum (FBS), 100 units mL^−1 penicillin/streptomycin mixture, and 2.0 g/L of NaHCO3. Cell passage experiments were performed with trypsin every 2 days to maintain exponential growth. All cells were cultured until they reached logarithmic growth phase, unless specifically noted.
(§2) Cell cytotoxicity following treatment with the iridium(III) complexes was detected by MTT assay. The cells were seeded into 96-well micro-assay culture plates (1 × 10^4 cells per well) and grown overnight in a 5% CO2 incubator at 37 °C. Then, the cell lines were treated with gradient concentrations of the complexes 1–3. After treatment for 48 h, MTT solution (5 mg mL^−1, […]) dissolved in phosphate buffer was added to each well and the cells were further cultured for 4 h. Upon completion of incubation, the solvent was removed and 100 µL/well of buffer containing dimethylformamide (50%) and sodium dodecyl sulfate (20%) was added to dissolve the produced formazan. The absorbance of each well was measured with a microplate reader at a wavelength of 490 nm. The IC50 values were determined from the plots of viability versus concentration used to treat the cells. Three independent experiments were performed to obtain the mean values.

SGC-7901 cells [4] = experiment: Colony-forming assay; assay type: cell-based, human; settings: 4.0 µM 1, 15.0 µM 2, 15.0 µM 3, 8 days
Method: The SGC-7901 cells were seeded at a cell density of 500 cells per well in a 6-well plate. After 24 h, an equal amount of solvent or iridium complexes was added into the medium for another 24 h. Then, the medium containing the tested complexes was removed and replaced with fresh medium. The number of the colonies was counted on the 8th day after seeding and then fixed with paraformaldehyde for 20 min. The colonies were photographed under an inverted microscope after staining with 0.1% (w/v) crystal violet for 20 min. Each experiment was carried out in triplicate.

SGC-7901 cells [5] = experiment: Transwell cell invasion assay; assay type: cell-based, human; settings: 4.0 µM 1, 15.0 µM 2, 15.0 µM 3, 24 h, Matrigel Transwell
Method: To analyze the efficacy of the iridium(III) complexes in preventing migration and offsetting the invasion potential of SGC-7901 cells, 24-well Transwell chambers coated with matrigel were used. The cells were trypsinized and re-suspended in serum-free RPMI-1640 at a density of 1.8 × 10^5 cells/mL. Then, 100 μL of the cell suspension and different concentrations of the complexes were placed in the top chambers of the Transwell plates, and 500 μL of RPMI-1640 containing 20% FBS was added to the lower chambers. After co-incubation for 24 h, non-invading cells in the top chambers of the Transwell plates were scraped away by cotton swabs, and invaded cells were fixed with paraformaldehyde for 15 min and stained with crystal violet solution (0.1%) for 20 min. The cells that invaded the underside of the Transwell plates were photographed with a microscope.

NIH 3T3 cells = experiment: MTT cytotoxicity assay, normal NIH 3T3; assay type: cell-based, mouse; settings: 48 h, read-out: IC50 toward NIH 3T3
Source text: as §1, §2

SGC-7901 cells [6] = experiment: MTT cytotoxicity assay, SGC-7901; assay type: cell-based, human; settings: 48 h; for IC50: read-out: IC50 toward SGC-7901
Source text: as §1, §2

| SMILES | Expression level of Bax (SGC-7901 cells [1]) | Expression level of Bcl-2 (SGC-7901 cells [1]) | Expression level of Bcl-xL (SGC-7901 cells [1]) | Expression level of phosphorylated p53 (P-p53) (SGC-7901 cells [1]) | Intracellular ATP amount (SGC-7901 cells [2]) [nM] | Percentage in the cells, G0/G1 phase (SGC-7901 cells [3]) [%] | Phase of cell cycle arrest (SGC-7901 cells [3]) | Percentage in the cells, G2/M phase (SGC-7901 cells [3]) [%] | Percentage in the cells, S phase (SGC-7901 cells [3]) [%] | IC50 (BEL-7402 cells) [µM] | Inhibition of colony formation (SGC-7901 cells [4]) | Inhibitory percentage of cell invasion (SGC-7901 cells [5]) [%] | IC50 (NIH 3T3 cells) [µM] | IC50 (SGC-7901 cells [6]) [µM] | IC50 toward SGC-7901 (SGC-7901 cells [6]) | Increase in the cells at the G0/G1 phase versus control (SGC-7901 cells [3]; 15.0 µM, 24 h) [%] |
| --- | --- | --- | --- | --- | --- | --- | --- | --- | --- | --- | --- | --- | --- | --- | --- | --- |
| F[P-](F)(F)(F)(F)F.Nc1c(N)c2cccnc2c2ncccc12.[Ir+3].[c-]1ccccc1-c1ccccn1.[c-]1ccccc1-c1ccccn1 [Complex 3, [Ir(Hppy)2(DAP)]PF6] | increased | dramatically decreased | dramatically decreased | dramatically decreased | 945.02 | 44.79 | inhibited cell proliferation at the S phase | 10.50 | 44.71 | 68.8 ± 4.6 | significant inhibition of colony formation | 48.90 | > 100 | 11.1 ± 1.3 | – | – |
| F[P-](F)(F)(F)(F)F.O=[N+]([O-])c1cc2ccc[n+]3c2c2c1ccc[n+]2[Ir-5]312([c]3ccccc3-c3cccc[n+]31)[c]1ccccc1-c1cccc[n+]12 [Complex 1, [Ir(Hppy)2(NP)]PF6] | increased | dramatically decreased | dramatically decreased | dramatically decreased | 913.91 | 50.28 | inhibited cell proliferation at the S phase | 6.70 | 43.02 | 23 ± 0.8 | significant inhibition of colony formation | 51.09 | 14.6 ± 1.3 | 3.6 ± 0.1 | the same cytotoxicity as cisplatin | – |
| F[P-](F)(F)(F)(F)F.Nc1c([N+](=O)[O-])c2cccnc2c2ncccc12.[Ir+3].[c-]1ccccc1-c1ccccn1.[c-]1ccccc1-c1ccccn1 [Complex 2, [Ir(Hppy)2(NAP)]PF6] | increased | dramatically decreased | dramatically decreased | dramatically decreased | 880.48 | 56.65 | cell cycle arrest at G0/G1 | 5.49 | 37.86 | 68.7 ± 1.5 | significant inhibition of colony formation | 46.01 | 23 ± 1.5 | 14.1 ± 0.5 | – | 9.03 |
